Assay results reported in ChEMBL document CHEMBL1155108, “SAR, pharmacokinetics, safety, and efficacy of glucokinase activating 2-(4-sulfonylphenyl)-N-thiazol-2-ylacetamides: discovery of PSN-GK1” (J Med Chem, 2008).
In brackets after ≈: the same amount, converted by molar mass. Activity calls are given as the source filed them. The calls are words filed in the database; no cut-off is given here.

What was measured:
[1] = molecular target: T1, Hexokinase-4 (Homo sapiens, UniProt P35557); test: Activation of GST fused human liver glucokinase assessed as generation of NADPH by G6PDH coupled assay
T1 sequence (P35557 whole entry): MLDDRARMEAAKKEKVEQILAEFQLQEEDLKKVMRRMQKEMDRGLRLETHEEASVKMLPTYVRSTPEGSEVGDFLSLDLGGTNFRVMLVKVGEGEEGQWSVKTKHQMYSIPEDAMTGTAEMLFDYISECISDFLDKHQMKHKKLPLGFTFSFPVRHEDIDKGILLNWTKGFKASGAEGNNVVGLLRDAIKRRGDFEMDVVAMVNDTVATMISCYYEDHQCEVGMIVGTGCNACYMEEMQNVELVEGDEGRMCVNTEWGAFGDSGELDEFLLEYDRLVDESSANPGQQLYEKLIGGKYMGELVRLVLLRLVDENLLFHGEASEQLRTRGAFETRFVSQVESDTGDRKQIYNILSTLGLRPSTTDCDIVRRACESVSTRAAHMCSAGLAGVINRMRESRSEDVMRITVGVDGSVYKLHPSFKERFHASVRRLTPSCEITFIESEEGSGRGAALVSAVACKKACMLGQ

[2] = Metabolic stability in mouse liver microsomes; type: ADME, Microsome
[3] = Aqueous solubility at pH 6.5 buffer; type: physicochemical
[4] = Plasma concentration in C57B1/6 mouse at 10 mg/kg, po after 0.5 hrs; type: ADME, organism-based; parameters: dose 10 mg/kg, route oral
[5] = Plasma concentration in C57B1/6 mouse at 5 mg/kg, po after 0.5 hrs; type: ADME, organism-based; parameters: dose 5 mg/kg, route oral
[6] = test system: Rattus norvegicus; test: Acute toxicity in rat at >=100 mg/kg, po; type: organism-based; settings: in vivo
[7] = test system: Rattus norvegicus; test: Toxicity in Sprague-Dawley rat at 250 mg/kg, po; type: organism-based; parameters: dose 250 mg/kg, route oral; settings: in vivo
[8] = Cmax in Sprague-Dawley rat at 250 mg/kg, po; type: ADME, organism-based; parameters: dose 250 mg/kg, route oral; settings: in vivo
[9] = AUC (0 to 24 hrs) in Sprague-Dawley rat at 250 mg/kg, po; type: ADME, organism-based; parameters: time < 24 hr, dose 250 mg/kg, route oral; settings: plasma
[10] = Clearance in Sprague-Dawley rat at 1 mg/5 mL/kg, iv in 40% DMSO; type: ADME, organism-based; settings: in vivo, 1 mg/kg
[11] = Volume of distribution at steady state in Sprague-Dawley rat at 1 mg/5 mL/kg, iv in 40% DMSO; type: ADME, organism-based; settings: in vivo, 1 mg/kg, read-out: Vdss
[12] = Half life in Sprague-Dawley rat at 1 mg/5 mL/kg, iv in 40% DMSO; type: ADME, organism-based; settings: in vivo, 1 mg/kg
[13] = AUC (0 to infinity) in Sprague-Dawley rat at 1 mg/5 mL/kg, iv in 40% DMSO; type: ADME, organism-based; parameters: dose 5 mL/kg, time infinity, route intravenous; settings: plasma, 1 mg/kg
[14] = Cmax in Sprague-Dawley rat at 5 mg/10 mL/kg, po in 10% aqueous gelucire 44/14; type: ADME, organism-based; settings: in vivo, 5 mg/kg
[15] = Tmax in Sprague-Dawley rat at 5 mg/10 mL/kg, po in 10% aqueous gelucire 44/14; type: ADME, organism-based; settings: in vivo, 5 mg/kg
[16] = Half life in Sprague-Dawley rat at 5 mg/10 mL/kg, po in 10% aqueous gelucire 44/14; type: ADME, organism-based; settings: in vivo, 5 mg/kg
[17] = AUC (0 to infinity) in Sprague-Dawley rat at 5 mg/10 mL/kg, po in 10% aqueous gelucire 44/14; type: ADME, organism-based; parameters: dose 10 mL/kg, time infinity, route oral; settings: plasma, 5 mg/kg
[18] = Oral bioavailability in Sprague-Dawley rat at 5 mg/10 mL/kg in 10% aqueous gelucire 44/14; type: ADME, organism-based; settings: in vivo, 5 mg/kg
[19] = test system: Rattus norvegicus; test: Reduction in blood glucose level in fasted Sprague-Dawley rat at 10 mg/kg, po for 360 mins; type: functional, organism-based; parameters: dose 10 mg/kg

Row | Compound | EC50 [1] [nM] | half-life [2] [h] | solubility [3] [µg/mL] | concentration at 0.5 h [4] [ng/mL] | further results
1 | CS(=O)(=O)c1ccc([C@@H](CC2CCOCC2)C(=O)Nc2ncc(F)s2)cc1 | 1430 | 2.08 | 298 (≈ 722 µM) | 8280 | –
2 | CS(=O)(=O)c1ccc(C(=Cc2cccs2)C(=O)Nc2nccs2)cc1 | 560 | – | – | – | –
3 | CS(=O)(=O)c1ccc(/C(=C\C2CCOCC2)C(=O)Nc2nccs2)cc1 | 2300 | > 3.33 | 13 (≈ 33.1 µM) | 3680 | –
4 | O=C(Nc1ncc(F)s1)[C@H](CC1CCOCC1)c1ccc(S(=O)(=O)C2CCC2)cc1 | 140 | 0.45 | 60 (≈ 133 µM) | – | concentration at 0.5 h [5]: 1180 ng/mL
5 | O=C(Nc1ncc(F)s1)[C@H](CC1CCOCC1)c1ccc(S(=O)(=O)C2CCCC2)cc1 | 70 | 0.267 | 24 (≈ 51.4 µM) | 168 | –
6 | CS(=O)(=O)c1ccc([C@@H](CC2CCOCC2)C(=O)Nc2nccs2)cc1 | 3470 | > 3.33 | 410 (≈ 1040 µM) | 5150 | Activity [6]: Toxic
7 | O=C(Nc1nccs1)[C@H](CC1CCOCC1)c1ccc(S(=O)(=O)C2CC2)cc1 | 570 | 2.4 | 147 (≈ 350 µM) | 1860 | Activity [6]: Toxic
8 | O=C(Nc1cnccn1)/C(=C/c1cccs1)c1ccccc1 | 26000 | – | – | – | –
9 | CS(=O)(=O)c1ccc(C(CC2CCOCC2)C(=O)Nc2nccs2)cc1 (stereo not drawn) | 8930 | > 3.33 | 97 (≈ 246 µM) | – | –

The next lines start with results.

Row | EC50 [1] [nM] | half-life [2] [h] | solubility [3] [µg/mL] | concentration at 0.5 h [4] [ng/mL] | Compound | further results
10 | 580 | 0.883 | 40 (≈ 92 µM) | 1640 | Cc1cnc(NC(=O)[C@H](CC2CCOCC2)c2ccc(S(=O)(=O)C3CC3)cc2)s1 | –
11 | 10800 | – | – | – | O=C(Nc1nccs1)/C(=C/c1cccs1)c1ccccc1 | –
12 | > 10000 | – | – | – | CS(=O)(=O)c1ccc([C@H](CC2CCOCC2)C(=O)Nc2nccs2)cc1 | –
13 | – | 1.5 | 58 (≈ 132 µM) | 5010 | O=C(Nc1ncc(F)s1)[C@H](CC1CCOCC1)c1ccc(S(=O)(=O)C2CC2)cc1 | Activity [7]: Non-toxic; Cmax [8]: 49200 ng/mL; AUC(0-t) at 24 h [9]: 898000 ng·h/mL; clearance [10]: 10 mL/min/kg; Vd [11]: 2.1 L/kg; half-life [12]: 3.2 h; AUC(0-inf) [13]: 1660 ng·h/mL; Cmax [14]: 1130 ng/mL; Tmax [15]: 1 h; half-life [16]: 3.4 h; AUC(0-inf) [17]: 10700 ng·h/mL; bioavailability [18]: 129%; Activity [19]: Active
